Values quoted from earlier work, collected in patent publication US5140036A, “1,3,5-trisubstituted-1,2,4-triazole compounds for treatment of circulatory disorders” (priority 1990, dated 1992).

Experiments:
[1] = tested on: angiotensin II; conditions: series of binding experiments, functional assays and in vivo tests
[2] = tested on: angiotensin II at its receptors; conditions: commercially-available peptidic angiotensin II antagonists

Row | residual agonist activity [2] | SMILES | angiotensin II antagonist activity [1]
1 |  | CCCCc1nc(Cl)c(CC(=O)O)n1Cc1ccccc1[N+](=O)[O-] [2-butyl-4-chloro-1-(2-nitrobenzyl)imidazole-5-acetic acid] | specific competitive angiotensin II antagonist activity
2 |  | CCCCc1nc(Cl)c(CC(=O)O)n1Cc1ccccc1Cl [2-n-butyl-4-chloro-1-(2-chlorobenzyl)imidazole-5-acetic acid] | specific competitive angiotensin II antagonist activity
3 | significant residual agonist activity | CNCC(=O)N[C@@H](CCCN=C(N)N)C(=O)N[C@H](C(=O)N[C@@H](Cc1ccc(O)cc1)C(=O)N[C@H](C(=O)N[C@@H](Cc1cnc[nH]1)C(=O)N1CCC[C@H]1C(=O)N[C@@H](C)C(=O)O)C(C)C)C(C)C [Saralasin] | 
